Usually pKi stands for the Ki on a negative log10 scale, so that one unit is a factor of ten. A low value points to a high Ki. As usually defined, the kinact is the rate constant of inactivation at saturating inhibitor.

pKi: −log10 of the molar value. “Also recorded” adds a separate entry of the source.

The target of test [1] is T1, dopamine β-hydroxylase (DBH) (Bos taurus, UniProt P15101).
T1 sequence (P15101 1-610): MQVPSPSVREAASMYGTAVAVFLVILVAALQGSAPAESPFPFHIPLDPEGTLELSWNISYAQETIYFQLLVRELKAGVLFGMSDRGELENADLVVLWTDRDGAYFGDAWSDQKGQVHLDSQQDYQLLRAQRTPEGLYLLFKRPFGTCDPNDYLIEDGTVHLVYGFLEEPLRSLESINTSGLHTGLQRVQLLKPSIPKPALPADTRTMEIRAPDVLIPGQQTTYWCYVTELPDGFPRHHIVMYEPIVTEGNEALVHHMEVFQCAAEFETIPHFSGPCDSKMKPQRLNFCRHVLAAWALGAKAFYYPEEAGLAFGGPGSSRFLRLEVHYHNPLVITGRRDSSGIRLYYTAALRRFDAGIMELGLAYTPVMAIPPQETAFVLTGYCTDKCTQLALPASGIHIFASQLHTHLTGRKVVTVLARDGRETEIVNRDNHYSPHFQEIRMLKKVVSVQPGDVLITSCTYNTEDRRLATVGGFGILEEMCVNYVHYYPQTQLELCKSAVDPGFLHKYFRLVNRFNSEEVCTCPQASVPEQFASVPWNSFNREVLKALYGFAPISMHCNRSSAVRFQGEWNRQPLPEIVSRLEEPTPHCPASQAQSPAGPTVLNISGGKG
Kind of test: Dopamine β-hydroxylase (DBH) inhibitory activity in vitro, time-dependent inactivation (Table I). In kind it is biochemical. To be noted: for pKi: inhibition constant for inactivation of DBH; for pKi / kinact: tyramine substrate, pH 5, Kitz and Wilson; for kinact: rate of inactivation of DBH. As to the method: The dopamine β-hydroxylase inhibitory properties of the compounds of this invention can readily be determined by standard and well known procedures such as those procedures set forth in U.S. Pat. […] For example, determination of whether the DBH inhibition allows time-dependent kinetics is exemplified by the procedure wherein enzymatic oxygenation by DBH is determined in aqueous solution in the presence of molecular oxygen, an electron donor such as ascorbate, and the necessary cofactors for the enzyme at a pH of 5 and a temperature of 20°-40° C., preferably 37° C. The test compound is added at the desired concentration, and the system is incubated. At different time intervals, aliquots are taken and DBH activity is measured using tyramine as the substrate and the reaction followed by measuring the oxygen uptake using a polarographic electrode and an oxygen monitor by the method of S. May et al., J. Biol. Chem. 256, 2258 (1981). The inhibition constants for the inactivation of DBH by each compound are then determined by conventional procedures such as the method of Kitz and Wilson, J. Biol. Chem. 237, 3245 (1962). When the compounds shown in Table I were tested according to the above described procedure, the DBH inhibitory activity increased as a function of the time of incubation. The initial rate of decrease of activity increased with increasing concentration of inhibitor.

For test [2], the system named is Rat Brain - Mitochondrial MAO. Nature of the test: Time-dependant inhibition of rat brain mitochondrial MAO (Table III). The format is biochemical. As to the method:
(§1) The compounds of this invention were conceived as mechanism-based inhibitors of DBH similar to that reported by S. May, J. Biol. Chem. 256, 2258 (1981). These compounds bear some resemblance to the catecholamines which are destroyed by the enzyme monoamine oxidase (MAO) in order to terminate neurotransmission. Because of their structural similarity to the catecholamines they may act as MAO substrates and, as such, act as k cat inhibitors of MAO. These compounds were evaluated as mechanism-based inhibitors of monooxygenasess by the method of A. Christmas et. al., Br. J. Pharmacol. 45, 490 (1972).

The target in another test is T2, MAO A (Rattus norvegicus, UniProt P21396).
T2 construct: from tissue; host or cells: rat brain mitochondria
T2 sequence (P21396 1-526): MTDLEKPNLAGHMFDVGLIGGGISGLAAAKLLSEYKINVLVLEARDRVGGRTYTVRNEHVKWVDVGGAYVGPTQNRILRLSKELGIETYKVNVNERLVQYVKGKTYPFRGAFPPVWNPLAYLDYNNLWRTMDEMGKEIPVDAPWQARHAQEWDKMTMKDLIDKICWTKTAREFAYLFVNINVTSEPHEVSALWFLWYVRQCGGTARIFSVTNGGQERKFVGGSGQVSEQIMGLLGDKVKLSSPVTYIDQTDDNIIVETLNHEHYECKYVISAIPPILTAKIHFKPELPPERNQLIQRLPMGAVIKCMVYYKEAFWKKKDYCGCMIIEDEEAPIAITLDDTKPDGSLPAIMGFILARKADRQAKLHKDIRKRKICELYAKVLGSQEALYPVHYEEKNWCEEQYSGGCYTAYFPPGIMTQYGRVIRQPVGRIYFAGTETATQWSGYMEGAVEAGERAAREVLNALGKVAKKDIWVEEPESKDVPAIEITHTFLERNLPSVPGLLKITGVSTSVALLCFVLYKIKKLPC
Nature of the test: Inhibition of rat brain mitochondrial MAO A (Table III). The format is biochemical. As for the experimental part:
as §1

The target of another test is T3, MAO B (Rattus norvegicus, UniProt P19643).
T3 construct: from tissue; host or cells: rat brain mitochondria
T3 sequence (P19643 1-520): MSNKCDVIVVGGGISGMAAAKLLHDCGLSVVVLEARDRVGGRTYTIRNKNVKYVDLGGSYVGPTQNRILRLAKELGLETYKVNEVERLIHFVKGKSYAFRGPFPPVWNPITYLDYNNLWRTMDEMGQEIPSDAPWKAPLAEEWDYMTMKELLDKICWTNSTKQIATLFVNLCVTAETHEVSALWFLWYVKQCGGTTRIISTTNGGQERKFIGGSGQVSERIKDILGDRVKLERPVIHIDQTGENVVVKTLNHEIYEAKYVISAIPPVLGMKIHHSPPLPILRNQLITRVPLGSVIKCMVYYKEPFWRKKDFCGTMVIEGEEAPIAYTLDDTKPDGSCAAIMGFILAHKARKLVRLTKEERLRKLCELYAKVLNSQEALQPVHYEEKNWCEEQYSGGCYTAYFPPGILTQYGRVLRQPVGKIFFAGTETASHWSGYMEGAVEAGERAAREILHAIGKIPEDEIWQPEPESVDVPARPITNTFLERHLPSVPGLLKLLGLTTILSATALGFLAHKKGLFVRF
Kind of test: Inhibition of rat brain mitochondrial MAO B (Table III). The format is biochemical. As for the experimental part:
as §1

In another test the test system is purified DBH. Nature of the test: Time-dependant inhibition of purified DBH (Table III). In kind it is biochemical. As for the experimental part: The dopamine β-hydroxylase inhibitory properties of the compounds of this invention can readily be determined by standard and well known procedures such as those procedures set forth in U.S. Pat. No. 4,415,191. For example, determination of whether the DBH inhibition allows time-dependent kinetics is exemplified by the procedure wherein enzymatic oxygenation by DBH is determined in aqueous solution in the presence of molecular oxygen, an electron donor such as ascorbate, and the necessary cofactors for the enzyme at a pH of 5 and a temperature of 20°-40° C., preferably 37° C. The test compound is added at the desired concentration, and the system is incubated. At different time intervals, aliquots are taken and DBH activity is measured using tyramine as the substrate and the reaction followed by measuring the oxygen uptake using a polarographic electrode and an oxygen monitor by the method of S. May et al., J. Biol. Chem. 256, 2258 (1981). The inhibition constants for the inactivation of DBH by each compound are then determined by conventional procedures such as the method of Kitz and Wilson, J. Biol. Chem. 237, 3245 (1962). When the compounds shown in Table I were tested according to the above described procedure, the DBH inhibitory activity increased as a function of the time of incubation. […]

The next test deals with hypertensive rats. Kind of test: Antihypertensive activity in vivo in hypertensive rats (Table II). Further details: species or system rat. As for the experimental part: The ability of the compounds of this invention to lower blood pressure can be determined in vivo using hypertensive rats according to standard and well known procedures. The test compound is administered intraperitoneally (ip) or orally (po) to rats and the blood pressure monitored continuously. Since DBH is a major enzyme in the synthetic pathway of the catecholamines, it would be expected that the presence of an inhibitor would act to decrease the amount of catecholamines produced, and thereby have an antihypertensive effect.

In the case of `C=C(CN)c1ccsc1` [β-Methylene-3-Thiopheneethanamine, β-methylene-3-thiopheneethanamine], in test [1], the pKi is 2.70 and the kinact is 6.67e-05 s⁻¹.

For the compound `C=C(CN)c1cccs1` [β-Methylene-2-Thiopheneethanamine, β-methylene-2-thiopheneethanamine], the “MAO inhibition (in words)” value in test [2] is reported as “weak MAO inhibitory activity; also recorded: Weak time-dependant MAO inhibitor”. In test [1] (2- vs. 3-thiophene isomer, Table I), the “Relative DBH inhibitory potency of the isomers” value is “the more potent isomer”. The negative logarithm of the Ki (pKi) in test [1] is 2.70; at MAO A it was 3.49; at MAO B, 3.96. Also, the kinact in test [1] is 0.000333 s⁻¹. Further, the “MAO A Tau50” value at MAO A turned out to be 2.6 min. Further, the “MAO B Tau50” value on MAO B is listed as 4.9 min. Besides, in the test on purified DBH (5.10^-5 M final concentration, purified DBH), the “Time-dependant inhibition t1/2” value was 7 min. In the test with purified DBH (compared with MAO inhibition), the “DBH inhibitory activity (in words)” value was “potent DBH inhibitory activity”. The “Maximum % Change Mean Blood Pressure” value is given as 11% in the test with hypertensive rats (10 mg/kg ip); 22% with hypertensive rats (30 mg/kg ip); 11% with hypertensive rats (50 mg/kg po); 52% in the test on hypertensive rats (100 mg/kg ip); 14% with hypertensive rats (100 mg/kg po); 14% in the test with hypertensive rats (200 mg/kg po).
